According to patent publication US7973047B2, “Beta-Secretase modulators and methods of use” (Amgen Inc., priority 2010, dated 2011):

Test system: Aβ40 in conditioned medium of cells stably expressing Amyloid Precursor Protein (APP)
Experiment: BACE cell-based assay: Aβ40 in conditioned medium by sandwich ELISA
Settings: cell based assay data of Table 4; unit inferred; read-out: Cell Assay
Summary of the method: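 APP-stable cells grown 24 h in DMEM/10% FBS, then exposed to compounds for 24 h in a 10-point dose series starting at 100 or 10 μM, 0.1% DMSO final. Medium Aβ40 measured by pAb40/biotinylated 6E10 sandwich ELISA with Europium time-resolved fluorescence; IC50 from percent inhibition.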

Structure (SMILES)	IC50 [nM]
CC(=O)N[C@@H](Cc1ccnc(C(F)(F)F)n1)[C@H](O)CN[C@H]1CC2(CCC2)Oc2ncc(CC(C)(C)C)cc21 [compound 647, N-((1S,2R)-3-(((4′S)-6′-(2,2-dimethylpropyl)-3′,4′-dihydrospiro[cyclobutane-1,2′-pyrano[2,3-b]pyridin]-4′-yl)amino)-2-hydroxy-1-((2-(trifluoromethyl)-4-pyrimidinyl)methyl)propyl)acetamide]	152
CC(=O)N[C@@H](Cc1ccc(C(F)(F)F)cc1)[C@H](O)CN[C@H]1CC2(CCC2)Oc2ncc(CC(C)(C)C)cc21 [compound 648]	189
CC(=O)N[C@@H](Cc1ccn(C)c(=O)c1)[C@H](O)CN[C@H]1CC2(CCC2)Oc2ncc(CC(C)(C)C)cc21 [compound 649]	30
CC(=O)N[C@@H](Cc1ccc(F)cc1)[C@H](O)CN[C@H]1CC2(CCC2)Oc2ncc(CC(C)(C)C#N)cc21 [compound 650]	20.2
CC(=O)N[C@@H](Cc1cccc(F)c1)[C@H](O)CN[C@H]1CC2(CCC2)Oc2ncc(CC(C)(C)C#N)cc21 [compound 651]	4.24
CC(=O)N[C@@H](Cc1ccccc1)[C@H](O)CN[C@H]1CC2(CCC2)Oc2ncc(CC(C)(C)C(F)F)cc21 [compound 652]	7.84
CCc1cc2c(s1)CC1(CCC1)C[C@@H]2NC[C@@H](O)[C@H](Cc1ccccc1)NC(C)=O [compound 653, N-((1S,2R)-3-(((4S)-2-ethyl-4,7-dihydro-5H-spiro[1-benzothiophene-6,1′-cyclobutan]-4-yl)amino)-2-hydroxy-1-(phenylmethyl)propyl)acetamide]	127
CC(=O)N[C@@H](Cc1ccccc1)[C@H](O)CN[C@H]1CC(C)(C)Cc2sc(CC(C)(C)C)cc21 [compound 654, N-((1S,2R)-3-(((4S)-2-(2,2-dimethylpropyl)-6,6-dimethyl-4,5,6,7-tetrahydro-1-benzothien-4-yl)amino)-2-hydroxy-1-(phenylmethyl)propyl)acetamide]	13.8
COC(=O)N[C@@H](Cc1ccccc1)[C@H](O)CN[C@H]1CC(C)(C)Cc2sc(CC(C)(C)C)cc21 [compound 655, methyl ((1S,2R)-3-(((4S)-2-(2,2-dimethylpropyl)-6,6-dimethyl-4,5,6,7-tetrahydro-1-benzothien-4-yl)amino)-2-hydroxy-1-(phenylmethyl)propyl)carbamate]	105
CC(=O)N[C@@H](Cc1cc(F)cc(F)c1)[C@H](O)CN[C@H]1CC2(CCC2)Oc2nc(F)c(CC(C)(C)C)cc21 [compound 659]	6.42
CC(=O)N[C@@H](Cc1cccc(F)c1)[C@H](O)CN[C@H]1CC2(CCC2)Oc2nc(F)c(CC(C)(C)C)cc21 [compound 661]	10.2
CC(=O)N[C@@H](Cc1ccc(F)cc1)[C@H](O)CN[C@H]1CC2(CCC2)Oc2nc(F)c(CC(C)(C)C)cc21 [compound 662]	94.7
COc1ccc(C[C@H](NC(C)=O)[C@H](O)CN[C@H]2CC3(CCC3)Oc3ncc(CC(C)(C)C)cc32)cc1F [compound 665]	8.53
COc1ccc(C[C@H](NC(C)=O)[C@@H](O)CN[C@H]2CC3(CCC3)Oc3ncc(CC(C)(C)C)cc32)cc1F [compound 666]	162
CC(=O)N[C@@H](Cc1ccc(Cl)cc1)[C@H](O)CN[C@H]1CC2(CCC2)Oc2nc(F)c(CC(C)(C)C)cc21 [compound 667]	385
CC(=O)N[C@@H](Cc1ccc(Cl)cc1)[C@H](O)CN[C@H]1C[C@@]2(CCOC2)Oc2ncc(CC(C)(C)C)cc21 [compound 669]	≥ 10000
CC(=O)N[C@@H](Cc1ccc(Cl)cc1)[C@H](O)CN[C@H]1C[C@]2(CCOC2)Oc2ncc(CC(C)(C)C)cc21 [compound 670, N-((1S,2R)-1-((4-chlorophenyl)methyl)-3-(((3R,4′S)-6′-(2,2-dimethylpropyl)-3′,4,4′,5-tetrahydrospiro[furan-3,2′-pyrano[2,3-b]pyridin]-4′-yl)amino)-2-hydroxypropyl)acetamide]	51.8
CC(=O)N[C@@H](Cc1ccc(F)cc1)[C@H](O)CN[C@H]1C[C@@]2(CCOC2)Oc2ncc(CC(C)(C)C)cc21 [compound 671]	20.5
CC(=O)N[C@@H](Cc1ccc(F)cc1)[C@H](O)CN[C@H]1C[C@]2(CCOC2)Oc2ncc(CC(C)(C)C)cc21 [compound 672]	23.8
CC(=O)N[C@@H](Cc1ccc(F)cc1)[C@H](O)CN[C@H]1CC2(CCC2)Oc2ncc([C@@H](F)C(C)(C)C)cc21 [compound 674]	1080
CC(=O)N[C@@H](Cc1ccc(F)cc1)[C@H](O)CN[C@H]1CC2(CCC2)Oc2ncc([C@H](F)C(C)(C)C)cc21 [compound 675]	12.1
CC(=O)N[C@@H](Cc1ccc(F)c(C(F)(F)F)c1)[C@H](O)CN[C@H]1CC2(CCC2)Oc2ncc(CC(C)(C)C)cc21 [compound 676]	18.1
CC(=O)N[C@@H](Cc1cccc(F)c1F)[C@H](O)CN[C@H]1CC2(CCC2)Oc2ncc([C@H](F)C(C)(C)C)cc21 [compound 677]	8.61
CC(=O)N[C@@H](Cc1cccc(F)c1)[C@H](O)CN[C@H]1CC2(CCC2)Oc2ncc([C@H](F)C(C)(C)C)cc21 [compound 678]	2.07
CC(=O)N[C@@H](Cc1ccccc1)[C@H](O)CN[C@H]1CC2(CCC2)Oc2ncc([C@H](F)C(C)(C)C)cc21 [compound 679]	6.04
CC(=O)N[C@@H](Cc1ccc(Cl)cc1)[C@H](O)CN[C@H]1CC2(CCC2)Oc2ncc([C@H](F)C(C)(C)C)cc21 [compound 680]	23.1

Structure (SMILES)	IC50 [nM]
CC(=O)N[C@@H](Cc1cc(F)cc(F)c1)[C@H](O)CN[C@H]1CC2(CCC2)Oc2ncc([C@H](F)C(C)(C)C)cc21 [compound 681]	3.46
CC(=O)N[C@@H](Cc1ccc(F)cc1)[C@H](O)CN[C@H]1CC2(CCC2)Oc2ncc(CC3CCC3)cc21 [compound 682]	66.5
CC(=O)N[C@@H](Cc1ccc(F)cc1)[C@H](O)CN[C@@H]1c2cc(CC(C)(C)C)cnc2N2CCC[C@@H]12 [compound 683]	524
CCCCC(O)c1cnc2c(c1)[C@@H](NC[C@@H](O)[C@H](Cc1ccc(F)cc1)NC(C)=O)CC1(CCC1)O2 (stereo partly drawn) [compound 684]	2860
CC(=O)N[C@@H](Cc1cc(F)c(F)cc1F)[C@H](O)CN[C@H]1CC2(CCC2)Oc2ncc(CC(C)(C)C)cc21 [compound 685]	9.28
CC(=O)N[C@@H](Cc1cc(F)c(F)c(F)c1)[C@H](O)CN[C@H]1CC2(CCC2)Oc2ncc(CC(C)(C)C)cc21 [compound 686]	7.07
CC(=O)N[C@@H](Cc1cc(F)cc(F)c1)[C@H](O)CN[C@H]1CC2(CCC2)Oc2ncc(CC3CC3)cc21 [compound 687]	7.84
CCC(CC)Cc1cnc2c(c1)[C@@H](NC[C@@H](O)[C@H](Cc1cc(F)cc(F)c1)NC(C)=O)CC1(CCC1)O2 [compound 691]	95.8
CC(=O)N[C@@H](Cc1ccccc1)[C@H](O)CN[C@H]1CC(C)(C)Nc2ccc(CC(C)(C)C)cc21 [compound 692]	30.6
CC(=O)N[C@@H](Cc1cc(F)cc(F)c1)[C@H](O)CN[C@H]1CC(C)(C)Nc2ccc(CC(C)(C)C)cc21 [compound 693]	5.49
CCCc1cnc2c(c1)[C@@H](NC[C@@H](O)[C@H](Cc1ccc(F)cc1)NC(C)=O)CC1(CCC1)O2 [compound 694]	37.2
CC[C@H](C)Cc1cnc2c(c1)[C@@H](NC[C@@H](O)[C@H](Cc1ccc(F)cc1)NC(C)=O)CC1(CCC1)O2 [compound 695]	43.4
CC(=O)N[C@@H](Cc1ccc(F)cc1)[C@H](O)CN[C@H]1CC2(CCC2)Oc2ncc(C=C(C)C)cc21 [compound 696]	254
CC(=O)N[C@@H](Cc1ccc(F)cc1)[C@H](O)CN[C@H]1CC2(CCC2)Oc2ncc(C(=O)C(C)(C)C)cc21 [compound 697]	277
[N-]=[N+]=NCC(=O)N[C@@H](Cc1ccccc1)[C@H](O)CN[C@H]1CC2(CCC2)Oc2ccc(Br)cc21 [compound 698]	2380
CC(=O)N[C@@H](Cc1cccc(C#N)c1)[C@H](O)CN[C@H]1CC2(CCC2)Oc2ncc(C(F)(F)F)cc21 [compound 699]	849
CC(=O)N[C@@H](Cc1cc(F)cc(F)c1)[C@H](O)CN[C@H]1CC2(CCC2)Oc2ncc(C(F)(F)F)cc21 [compound 700, N-((1S,2R)-1-((3,5-difluorophenyl)methyl)-2-hydroxy-3-(((4′S)-6′-(trifluoromethyl)-3′,4′-dihydrospiro[cyclobutane-1,2′-pyrano[2,3-b]pyridin]-4′-yl)amino)propyl)acetamide]	1200
CC(=O)N[C@@H](Cc1ccc(F)c(F)c1)[C@H](O)CN[C@H]1CC2(CCC2)Oc2ncc(CC(C)(C)C)cc21 [compound 701]	2.36
CC(=O)N[C@@H](Cc1cccc(Cl)c1)[C@H](O)CN[C@H]1CC2(CCC2)Oc2ncc(CC(C)(C)C)cc21 [compound 702]	1.24
CC(=O)N[C@@H](Cc1ccccc1F)[C@H](O)CN[C@H]1CC2(CCC2)Oc2ncc(CC(C)(C)C)cc21 [compound 703]	5.08
CC(=O)N[C@@H](Cc1ccc(F)cc1F)[C@H](O)CN[C@H]1CC2(CCC2)Oc2ncc(CC(C)(C)C)cc21 [compound 704]	18.4
CC#CC[C@H](NC(C)=O)[C@H](O)CN[C@H]1CC2(CCC2)Oc2ncc(CC(C)(C)C)cc21 [compound 705, N-((1S)-1-((1R)-2-(((4′S)-6′-(2,2-dimethylpropyl)-3′,4′-dihydrospiro[cyclobutane-1,2′-pyrano[2,3-b]pyridin]-4′-yl)amino)-1-hydroxyethyl)-3-pentyn-1-yl)acetamide]	433
CC(=O)N[C@@H](Cc1ccc(F)c(Cl)c1)[C@H](O)CN[C@H]1CC2(CCC2)Oc2ncc(CC(C)(C)C)cc21 [compound 706]	3.11
CC(=O)N[C@@H](Cc1ccc(Cl)cc1)[C@H](O)CN[C@H]1CC2(CCC2)Oc2ncc(CC(C)(C)C)cc21 [compound 707]	12.6
CC(=O)N[C@@H](Cc1ccccc1Cl)[C@H](O)CN[C@H]1CC2(CCC2)Oc2ncc(CC(C)(C)C)cc21 [compound 708]	23.4
